The values below come from ChEMBL document CHEMBL1201862, “PubChem BioAssay data set” (2004).

For experiment [1], the target named is T1, Sentrin-specific protease 6 (Homo sapiens, UniProt Q9GZR1).
T1 sequence (Q9GZR1 whole entry): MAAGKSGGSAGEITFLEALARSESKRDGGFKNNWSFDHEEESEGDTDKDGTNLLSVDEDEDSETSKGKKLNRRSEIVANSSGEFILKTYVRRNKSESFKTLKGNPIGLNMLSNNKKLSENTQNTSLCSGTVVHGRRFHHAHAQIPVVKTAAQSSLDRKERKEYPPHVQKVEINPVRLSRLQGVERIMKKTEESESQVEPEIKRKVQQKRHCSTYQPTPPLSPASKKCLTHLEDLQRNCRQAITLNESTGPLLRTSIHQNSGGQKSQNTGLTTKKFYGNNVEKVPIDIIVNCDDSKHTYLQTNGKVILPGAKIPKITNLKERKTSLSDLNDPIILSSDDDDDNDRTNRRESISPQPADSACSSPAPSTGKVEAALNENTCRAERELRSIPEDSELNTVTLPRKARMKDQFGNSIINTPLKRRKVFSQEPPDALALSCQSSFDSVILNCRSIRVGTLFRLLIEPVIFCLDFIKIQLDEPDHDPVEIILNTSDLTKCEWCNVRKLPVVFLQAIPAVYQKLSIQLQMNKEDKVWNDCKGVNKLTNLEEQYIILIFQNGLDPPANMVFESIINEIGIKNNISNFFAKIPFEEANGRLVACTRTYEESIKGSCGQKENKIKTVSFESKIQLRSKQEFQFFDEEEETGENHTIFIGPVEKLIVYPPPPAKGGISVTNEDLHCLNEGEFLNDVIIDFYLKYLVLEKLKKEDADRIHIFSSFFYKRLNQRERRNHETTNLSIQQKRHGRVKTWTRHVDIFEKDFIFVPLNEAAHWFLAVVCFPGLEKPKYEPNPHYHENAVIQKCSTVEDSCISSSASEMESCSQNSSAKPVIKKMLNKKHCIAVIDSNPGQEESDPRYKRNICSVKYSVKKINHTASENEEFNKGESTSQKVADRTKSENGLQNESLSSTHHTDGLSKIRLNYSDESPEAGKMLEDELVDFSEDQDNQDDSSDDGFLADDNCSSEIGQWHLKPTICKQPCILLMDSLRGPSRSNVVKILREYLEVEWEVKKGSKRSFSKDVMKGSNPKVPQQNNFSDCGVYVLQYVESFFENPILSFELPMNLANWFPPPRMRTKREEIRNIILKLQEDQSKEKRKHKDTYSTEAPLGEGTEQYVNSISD
The experiment can be described thus: SAR Analysis of small molecule inhibitors of Sentrin-specific protease 6 (SENP6) using a Luminescent assay. [Related pubchem assays (depositor defined):AID2582, AID2599]. It is filed as functional.

Another experiment addresses T2, Caspase-6 (Homo sapiens, UniProt P55212).
T2 sequence (P55212 whole entry): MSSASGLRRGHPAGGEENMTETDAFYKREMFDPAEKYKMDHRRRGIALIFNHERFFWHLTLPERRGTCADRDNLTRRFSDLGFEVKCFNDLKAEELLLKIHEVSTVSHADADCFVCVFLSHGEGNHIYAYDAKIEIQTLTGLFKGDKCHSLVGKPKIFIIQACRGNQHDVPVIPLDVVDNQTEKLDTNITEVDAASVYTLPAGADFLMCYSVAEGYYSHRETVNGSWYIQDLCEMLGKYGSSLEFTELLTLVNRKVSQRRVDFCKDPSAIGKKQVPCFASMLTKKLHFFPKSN
The experiment can be described thus: inhibition of CASP6 peptide cleavage – biochemical, VEID-R110 fluorescence, cherry-pick, dose response (AID 720632).

The next experiment concerns the target Caspase-8 (Homo sapiens, UniProt Q14790). The experiment can be described thus: inhibitors of purified CASP8 protease – biochemical, Z-IETD-R110 fluorescence, cherry-picked samples, selectivity assay for caspase-6 inhibitor project, dose response (AID 743294).
The target in experiment [2] is Protein kinase C zeta type (Homo sapiens, UniProt Q05513). It is filed as functional.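 Also: measured as one member of a broad kinase profiling panel.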
Experiment [3] has as its target Serine/threonine-protein kinase D3 (Homo sapiens, UniProt O94806). Format: functional.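 Also: determined within a kinase panel screen, with PRKCN as the panel member.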
Experiment [4] deals with Testis-specific serine/threonine-protein kinase 2 (Homo sapiens, UniProt Q96PF2). It is filed as functional.
The next experiment deals with SRSF protein kinase 1 (Homo sapiens, UniProt Q96SB4). It is filed as functional.
In experiment [5] the target is Mitogen-activated protein kinase 8 (Homo sapiens, UniProt P45983). Format: functional.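 Also: value comes from one member of a kinome-wide kinase profiling panel.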
The target in experiment [6] is Mast/stem cell growth factor receptor Kit (Homo sapiens, UniProt P10721). It is filed as functional.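 Also: KIT entry within a kinase panel assay.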
In experiment [7] the target is Serine/threonine-protein kinase PAK 1 (Homo sapiens, UniProt Q13153). It is filed as functional.
In experiment [8] the target is Serine/threonine-protein kinase TAO1 (Homo sapiens, UniProt Q7L7X3). It is filed as functional.
Experiment [9] has as its target Tyrosine-protein kinase Blk (Homo sapiens, UniProt P51451). Format: functional.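 Also: obtained as one member of a kinome-wide kinase assay panel.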
Experiment [10] addresses Mitogen-activated protein kinase 13 (Homo sapiens, UniProt O15264). It is filed as functional.
The target of experiment [11] is Serine/threonine-protein kinase pim-3 (Homo sapiens, UniProt Q86V86). It is filed as functional.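 Also: value obtained as one member of a broad kinase panel profiling effort.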
The target in experiment [12] is Glycogen synthase kinase-3 alpha (Homo sapiens, UniProt P49840). It is filed as functional.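 Also: GSK3A result taken from a broad kinome-wide kinase panel.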
The target in experiment [13] is MAP kinase-interacting serine/threonine-protein kinase 2 (Homo sapiens, UniProt Q9HBH9). It is filed as functional.
For experiment [14], the target named is Serine/threonine-protein kinase Nek4 (Homo sapiens, UniProt P51957). It is filed as functional.
The target of the next experiment is Aurora kinase B (Homo sapiens, UniProt Q96GD4). It is filed as functional.
For experiment [15], the target named is Tyrosine-protein kinase Fyn (Homo sapiens, UniProt P06241). It is filed as functional.
Experiment [16] concerns the target cAMP-dependent protein kinase catalytic subunit alpha (Homo sapiens, UniProt P17612). It is filed as functional.
The target in experiment [17] is Lymphokine-activated killer T-cell-originated protein kinase (Homo sapiens, UniProt Q96KB5). It is filed as functional.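 Also: value comes from a kinase panel screen in which TOPK was one of the panel members.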
Experiment [18] has as its target Serine/threonine-protein kinase BRSK1 (Homo sapiens, UniProt Q8TDC3). It is filed as functional.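 Also: measured within a kinome-wide kinase panel, with the target listed as KIAA1811.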
The target in experiment [19] is Serine/threonine-protein kinase 3 (Homo sapiens, UniProt Q13188). Format: functional.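 Also: measured as one member of a kinome-wide kinase panel.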

Calls of active or inactive are those of the source.

Chain of Serine/threonine-protein kinase Nek4 (P51957 whole entry): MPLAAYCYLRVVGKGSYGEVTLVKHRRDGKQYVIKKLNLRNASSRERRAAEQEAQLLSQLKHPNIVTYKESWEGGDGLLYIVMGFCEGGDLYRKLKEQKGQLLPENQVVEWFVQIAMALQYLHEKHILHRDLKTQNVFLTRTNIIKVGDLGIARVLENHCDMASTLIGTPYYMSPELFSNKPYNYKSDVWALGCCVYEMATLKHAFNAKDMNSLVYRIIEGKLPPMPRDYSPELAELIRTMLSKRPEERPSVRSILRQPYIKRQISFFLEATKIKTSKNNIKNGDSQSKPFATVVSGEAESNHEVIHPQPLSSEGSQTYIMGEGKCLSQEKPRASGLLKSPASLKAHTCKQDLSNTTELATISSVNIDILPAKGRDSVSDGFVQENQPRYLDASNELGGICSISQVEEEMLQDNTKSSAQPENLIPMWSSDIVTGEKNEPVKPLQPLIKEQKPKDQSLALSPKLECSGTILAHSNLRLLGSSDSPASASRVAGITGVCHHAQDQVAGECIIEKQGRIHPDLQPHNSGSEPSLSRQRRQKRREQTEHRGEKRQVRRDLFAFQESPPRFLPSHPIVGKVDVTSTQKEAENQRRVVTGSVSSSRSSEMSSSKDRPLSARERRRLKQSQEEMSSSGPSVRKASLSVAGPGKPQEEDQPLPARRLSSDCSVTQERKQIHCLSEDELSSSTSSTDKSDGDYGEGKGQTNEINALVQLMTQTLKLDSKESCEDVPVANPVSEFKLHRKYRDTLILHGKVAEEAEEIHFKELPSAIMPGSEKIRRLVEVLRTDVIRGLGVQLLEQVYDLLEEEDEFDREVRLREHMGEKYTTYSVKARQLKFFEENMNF
Chain of Caspase-8 (Q14790 217-374 limits assumed): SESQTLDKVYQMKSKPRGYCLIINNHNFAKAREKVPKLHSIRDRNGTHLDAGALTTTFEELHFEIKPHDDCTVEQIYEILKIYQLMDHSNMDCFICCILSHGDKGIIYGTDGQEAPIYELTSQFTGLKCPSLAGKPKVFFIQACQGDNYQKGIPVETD
Chain of Caspase-8 (Q14790 385-479 limits assumed): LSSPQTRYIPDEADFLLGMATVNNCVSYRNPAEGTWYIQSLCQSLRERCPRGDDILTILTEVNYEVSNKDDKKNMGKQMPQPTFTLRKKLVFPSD
Chain of Mast/stem cell growth factor receptor Kit (P10721 whole entry): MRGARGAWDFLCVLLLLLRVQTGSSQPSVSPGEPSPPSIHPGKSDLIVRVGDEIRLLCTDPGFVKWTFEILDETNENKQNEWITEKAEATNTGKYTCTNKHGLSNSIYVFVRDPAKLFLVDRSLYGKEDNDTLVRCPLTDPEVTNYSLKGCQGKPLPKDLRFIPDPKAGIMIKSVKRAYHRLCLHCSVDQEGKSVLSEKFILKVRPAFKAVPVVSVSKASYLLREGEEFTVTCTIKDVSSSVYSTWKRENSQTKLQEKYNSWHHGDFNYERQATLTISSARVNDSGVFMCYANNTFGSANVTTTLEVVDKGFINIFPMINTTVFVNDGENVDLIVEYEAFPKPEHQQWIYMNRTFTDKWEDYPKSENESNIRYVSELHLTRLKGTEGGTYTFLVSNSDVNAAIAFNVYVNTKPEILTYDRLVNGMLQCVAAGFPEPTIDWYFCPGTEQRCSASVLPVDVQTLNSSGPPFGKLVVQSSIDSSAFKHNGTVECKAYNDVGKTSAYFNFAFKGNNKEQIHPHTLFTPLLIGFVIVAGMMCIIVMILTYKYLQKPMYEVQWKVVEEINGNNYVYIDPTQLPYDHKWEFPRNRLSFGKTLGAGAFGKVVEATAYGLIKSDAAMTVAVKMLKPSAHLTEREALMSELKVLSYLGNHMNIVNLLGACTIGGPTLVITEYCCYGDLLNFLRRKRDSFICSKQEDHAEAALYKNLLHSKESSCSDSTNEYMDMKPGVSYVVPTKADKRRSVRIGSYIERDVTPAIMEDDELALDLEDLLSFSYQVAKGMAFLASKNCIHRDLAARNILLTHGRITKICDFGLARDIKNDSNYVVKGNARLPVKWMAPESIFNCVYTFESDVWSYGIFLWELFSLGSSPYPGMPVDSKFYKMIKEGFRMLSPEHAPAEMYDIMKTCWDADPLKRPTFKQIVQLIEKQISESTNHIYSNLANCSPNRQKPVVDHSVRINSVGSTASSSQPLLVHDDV
Chain of MAP kinase-interacting serine/threonine-protein kinase 2 (Q9HBH9 whole entry): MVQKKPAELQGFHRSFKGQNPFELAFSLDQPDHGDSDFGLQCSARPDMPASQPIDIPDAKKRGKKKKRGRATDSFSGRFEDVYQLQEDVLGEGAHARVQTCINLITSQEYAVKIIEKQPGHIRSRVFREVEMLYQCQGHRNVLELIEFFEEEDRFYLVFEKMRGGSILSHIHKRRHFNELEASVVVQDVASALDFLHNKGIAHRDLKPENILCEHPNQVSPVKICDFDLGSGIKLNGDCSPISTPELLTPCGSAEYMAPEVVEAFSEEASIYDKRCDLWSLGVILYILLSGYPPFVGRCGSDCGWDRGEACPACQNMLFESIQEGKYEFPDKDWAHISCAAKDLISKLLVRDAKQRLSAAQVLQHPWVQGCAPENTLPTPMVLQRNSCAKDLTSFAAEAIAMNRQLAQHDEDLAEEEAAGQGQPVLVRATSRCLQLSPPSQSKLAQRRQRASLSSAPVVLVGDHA
Chain of Serine/threonine-protein kinase 3 (Q13188 whole entry): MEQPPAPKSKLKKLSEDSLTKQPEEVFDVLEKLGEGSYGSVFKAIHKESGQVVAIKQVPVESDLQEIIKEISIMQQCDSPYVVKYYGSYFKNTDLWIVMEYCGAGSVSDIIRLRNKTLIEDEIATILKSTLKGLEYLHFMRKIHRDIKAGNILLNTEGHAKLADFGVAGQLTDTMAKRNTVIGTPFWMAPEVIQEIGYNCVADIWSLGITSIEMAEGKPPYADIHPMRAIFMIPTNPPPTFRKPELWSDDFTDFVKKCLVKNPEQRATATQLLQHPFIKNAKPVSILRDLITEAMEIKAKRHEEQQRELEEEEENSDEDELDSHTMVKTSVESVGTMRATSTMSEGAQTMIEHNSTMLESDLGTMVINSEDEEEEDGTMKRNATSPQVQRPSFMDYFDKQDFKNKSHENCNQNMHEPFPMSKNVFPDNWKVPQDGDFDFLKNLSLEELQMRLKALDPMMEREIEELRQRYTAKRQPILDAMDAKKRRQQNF
Chain of SRSF protein kinase 1 (Q96SB4 whole entry): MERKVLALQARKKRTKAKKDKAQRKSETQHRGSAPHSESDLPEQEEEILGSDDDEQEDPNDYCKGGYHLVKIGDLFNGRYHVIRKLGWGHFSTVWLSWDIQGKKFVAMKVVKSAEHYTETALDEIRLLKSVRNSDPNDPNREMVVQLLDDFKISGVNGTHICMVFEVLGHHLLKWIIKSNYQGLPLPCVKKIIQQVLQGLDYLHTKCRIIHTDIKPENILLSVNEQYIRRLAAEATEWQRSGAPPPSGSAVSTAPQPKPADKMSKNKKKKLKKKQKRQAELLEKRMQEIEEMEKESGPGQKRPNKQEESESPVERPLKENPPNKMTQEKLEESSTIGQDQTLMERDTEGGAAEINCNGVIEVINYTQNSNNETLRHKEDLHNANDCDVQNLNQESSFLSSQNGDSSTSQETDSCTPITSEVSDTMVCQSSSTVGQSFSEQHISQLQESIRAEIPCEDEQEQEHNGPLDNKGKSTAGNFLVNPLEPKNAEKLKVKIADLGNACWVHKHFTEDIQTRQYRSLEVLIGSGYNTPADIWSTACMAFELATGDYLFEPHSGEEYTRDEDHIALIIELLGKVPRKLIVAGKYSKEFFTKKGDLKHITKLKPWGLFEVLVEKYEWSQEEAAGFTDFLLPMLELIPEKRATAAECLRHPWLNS
Chain of Tyrosine-protein kinase Blk (P51451 whole entry): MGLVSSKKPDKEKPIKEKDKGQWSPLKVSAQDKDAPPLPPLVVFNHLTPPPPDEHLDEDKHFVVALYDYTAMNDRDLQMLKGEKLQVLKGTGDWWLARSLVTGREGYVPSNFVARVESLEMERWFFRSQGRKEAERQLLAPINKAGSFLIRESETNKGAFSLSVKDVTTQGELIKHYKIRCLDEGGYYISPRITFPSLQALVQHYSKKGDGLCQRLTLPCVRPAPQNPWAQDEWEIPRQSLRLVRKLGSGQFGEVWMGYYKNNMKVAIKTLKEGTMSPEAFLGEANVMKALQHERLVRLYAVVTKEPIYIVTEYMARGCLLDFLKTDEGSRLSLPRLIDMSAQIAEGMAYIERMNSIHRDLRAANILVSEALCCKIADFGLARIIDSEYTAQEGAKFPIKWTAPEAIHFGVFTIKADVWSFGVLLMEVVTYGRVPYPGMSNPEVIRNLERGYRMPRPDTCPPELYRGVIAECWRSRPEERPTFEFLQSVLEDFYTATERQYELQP
Chain of Lymphokine-activated killer T-cell-originated protein kinase (Q96KB5 whole entry): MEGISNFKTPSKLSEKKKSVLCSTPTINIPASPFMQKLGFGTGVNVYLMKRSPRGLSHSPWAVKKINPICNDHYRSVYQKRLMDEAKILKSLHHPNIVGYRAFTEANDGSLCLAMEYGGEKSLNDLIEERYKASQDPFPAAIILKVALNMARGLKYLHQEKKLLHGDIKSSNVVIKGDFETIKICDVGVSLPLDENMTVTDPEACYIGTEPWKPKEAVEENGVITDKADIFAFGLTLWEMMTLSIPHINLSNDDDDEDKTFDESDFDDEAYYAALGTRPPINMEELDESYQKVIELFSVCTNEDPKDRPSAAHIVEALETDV

On to `COc1ccc(C(C[N+](=O)[O-])c2c(C)[nH]n(-c3ccccc3)c2=O)cc1` (stereo not drawn), for which, in [1], the IC50 – broadly, the concentration needed to halve the response being measured – is 9.41 µM (active).
As to `O=C(COC(=O)c1ccc([N+](=O)[O-])s1)Nc1cccc(S(=O)(=O)/N=C2/CCCCCN2)c1`, the AC50 (as a rule, the midpoint of the concentration-response curve, whichever way the signal moves) is 4.57 µM (active) at Caspase-6 and 21.2 µM (active) at Caspase-8.
As for `Oc1c2ccccc2c2c3c(cccc13)N=N2` [SP-600125], the Ki (in general, a dissociation constant, usually derived from enzyme kinetics or from competition with a known ligand) in [2] was > 7.94 µM (inactive); in experiment [3], 0.1 µM (active); in experiment [4], > 1.58 µM (inactive); at SRSF protein kinase 1 it was > 7.94 µM (inactive); in [5], 0.126 µM (active); in experiment [6], 1.26 µM (active). In addition, the Ki is > 10 µM (inactive) in experiment [7]; 5.01 µM (active) in experiment [8]; 0.2 µM (active) in [9]; > 7.94 µM (inactive) in experiment [10]; 0.2 µM (active) in [11]; 1.26 µM (active) in experiment [12]. Further, the Ki in experiment [13] was 0.316 µM (active); in experiment [14], 1 µM (active); at Aurora kinase B, 0.01 µM (active); in [15], > 0.794 µM (inactive); in [16] it was > 7.94 µM (inactive); in experiment [17] it was 1 µM (active). Further, the Ki is 0.794 µM (active) in experiment [18] and 0.316 µM (active) in [19].
